Experimental data published in article PMC9574867, “Discovery and Characterization of Synthesized and FDA-Approved Inhibitors of Clostridial and Bacillary Collagenases” (Journal of Medicinal Chemistry, 2022).
“Also recorded” adds a separate entry of the source.

How the values were obtained:
[1] = molecular target: ColQ1-CU (Bacillus cereus, UniProt B9J3S4); assay: biochemical; parameters: species or system B. cereus strain Q1
[2] = molecular target: ColQ1-FL (Bacillus cereus, UniProt B9J3S4); format: biochemical; settings: 12.5–1.5 μM tested, SDS-PAGE
[3] = system: B. cereus collagenases released in the NHDF infection model; format: cell-based, B. cereus AH187
[4] = system: NHDF cells infected with B. cereus; assay: NHDF infection model, cell morphology/attachment and fibrillar collagen (picrosirius red); format: cell-based, human; settings: B. cereus infection, 5 h

Chain of ColQ1-CU (B9J3S4 94-765 limits assumed): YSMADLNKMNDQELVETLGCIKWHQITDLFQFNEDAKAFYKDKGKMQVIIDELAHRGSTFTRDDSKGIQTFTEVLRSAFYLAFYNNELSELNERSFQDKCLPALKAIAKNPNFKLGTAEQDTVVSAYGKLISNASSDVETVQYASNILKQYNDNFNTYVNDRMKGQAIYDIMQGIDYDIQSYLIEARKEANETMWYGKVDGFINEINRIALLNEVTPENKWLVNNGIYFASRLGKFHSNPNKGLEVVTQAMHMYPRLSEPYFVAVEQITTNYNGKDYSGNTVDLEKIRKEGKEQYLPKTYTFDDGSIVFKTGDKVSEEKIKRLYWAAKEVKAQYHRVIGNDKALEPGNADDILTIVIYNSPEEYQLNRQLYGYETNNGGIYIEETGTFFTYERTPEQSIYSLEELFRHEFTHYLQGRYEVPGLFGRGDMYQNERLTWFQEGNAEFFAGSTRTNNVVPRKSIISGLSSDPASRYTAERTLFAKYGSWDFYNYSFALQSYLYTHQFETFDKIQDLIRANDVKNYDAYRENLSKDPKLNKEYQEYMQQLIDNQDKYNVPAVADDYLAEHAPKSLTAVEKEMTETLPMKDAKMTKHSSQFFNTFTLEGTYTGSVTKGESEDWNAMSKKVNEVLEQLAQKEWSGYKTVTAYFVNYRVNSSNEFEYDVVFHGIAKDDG
Chain of ColQ1-FL (B9J3S4 94-965 limits assumed): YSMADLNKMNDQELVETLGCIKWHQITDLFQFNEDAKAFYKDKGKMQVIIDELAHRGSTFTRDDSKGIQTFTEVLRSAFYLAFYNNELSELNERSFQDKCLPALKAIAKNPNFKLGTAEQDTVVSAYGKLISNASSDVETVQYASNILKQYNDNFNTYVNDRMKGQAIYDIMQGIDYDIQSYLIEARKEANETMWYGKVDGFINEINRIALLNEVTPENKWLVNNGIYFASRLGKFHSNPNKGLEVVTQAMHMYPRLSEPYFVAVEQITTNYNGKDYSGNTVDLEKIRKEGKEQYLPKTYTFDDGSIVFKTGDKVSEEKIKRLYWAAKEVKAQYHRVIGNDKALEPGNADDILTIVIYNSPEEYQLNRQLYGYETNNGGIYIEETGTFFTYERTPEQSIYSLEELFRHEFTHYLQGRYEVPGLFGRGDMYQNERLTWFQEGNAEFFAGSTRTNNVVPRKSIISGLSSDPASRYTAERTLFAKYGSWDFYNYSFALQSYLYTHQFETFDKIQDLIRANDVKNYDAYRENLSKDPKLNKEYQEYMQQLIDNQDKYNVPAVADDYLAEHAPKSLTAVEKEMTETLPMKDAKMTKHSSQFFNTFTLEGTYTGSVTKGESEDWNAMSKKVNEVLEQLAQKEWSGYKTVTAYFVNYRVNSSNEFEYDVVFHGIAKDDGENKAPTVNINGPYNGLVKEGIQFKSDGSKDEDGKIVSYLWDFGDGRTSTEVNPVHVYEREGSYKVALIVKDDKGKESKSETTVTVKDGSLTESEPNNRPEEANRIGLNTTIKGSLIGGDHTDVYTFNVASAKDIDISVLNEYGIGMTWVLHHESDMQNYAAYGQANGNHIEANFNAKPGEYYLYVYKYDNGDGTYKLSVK

Row | SMILES | inhibition at 100 µM [1] [%] | Inhibition (%) ([1]; 100 μM) | other results
1 | O=P(O)(O)C(Cl)(Cl)P(=O)(O)O [Clodronate disodium, reference compound] | < 5 | – | –
2 | O=P(O)(O)c1nc2ccccc2nc1P(=O)(O)O [Compound 7, Quinoxaline-2,3-diylbis(phosphonic acid)] | 40 ± 7 | – | –
3 | CCOP(=O)(OCC)c1nc2ccccc2nc1P(=O)(OCC)OCC [Compound 7c, Tetraethyl Quinoxaline-2,3-diylbis(phosphonate)] | < 5 | 7c; O=P(OCC)(OCC)C2=NC1=CC=CC=C1N=C2P(OCC)(OCC)=O; 3 ± 2% | –
4 | O=P(O)(O)c1nc2ccc(F)cc2nc1P(=O)(O)O [Compound 8, (6-Fluoroquinoxaline-2,3-diyl)bis(phosphonic acid)] | – | 8; O=P(O)(O)C2=NC1=CC(F)=CC=C1N=C2P(O)(O)=O; 38 ± 3% | –
5 | O=P(O)(O)c1nc2ccc(Cl)cc2nc1P(=O)(O)O [Compound 9, (6-Chloroquinoxaline-2,3-diyl)bis(phosphonic acid)] | – | – | IC50 [1]: 4 ± 0.6 µM
6 | CCOP(=O)(OCC)c1nc2ccc(C)cc2nc1P(=O)(OCC)OCC [Compound 11c, tetraethyl (6-methylquinoxaline-2,3-diyl)bis(phosphonate)] | < 5 | 11c; O=P(OCC)(OCC)C2=NC1=CC(C)=CC=C1N=C2P(OCC)(OCC)=O; 8 ± 4% | –
7 | COc1ccc2nc(P(=O)(O)O)c(P(=O)(O)O)nc2c1 [Compound 12, (6-Methoxyquinoxaline-2,3-diyl)bis(phosphonic acid)] | 23 ± 6 | – | –
8 | CCOP(=O)(OCC)c1nc2ccc(OC)cc2nc1P(=O)(OCC)OCC [Compound 12c, tetraethyl (6-methoxyquinoxaline-2,3-diyl)bis(phosphonate)] | – | 12c; O=P(OCC)(OCC)C2=NC1=CC(OC)=CC=C1N=C2P(OCC)(OCC)=O; 0 ± 2% | % Inhibition ([1]; 100 μM): n.i. (key: n.i.: no inhibition (percent inhibition < 5%))
9 | O=c1[nH]c2cc(Cl)c(Cl)cc2nc1P(=O)(O)O [Compound 16, (6,7-Dichloro-3-oxo-3,4-dihydroquinoxalin-2-yl)phosphonic Acid] | < 5 | 16; O=P(O)(O)C2=NC1=CC(Cl)=C(Cl)C=C1NC2=O; 5 ± 2% | Protection of Col I chains from cleavage by ColQ1-FL [2]: severe degradation was visible at all tested concentrations
10 | CC(=O)Nc1cccc(OCc2cn(CCNC(=O)C(CC(C)C)C(=O)NO)nn2)c1 (stereo not drawn) [Compound 28, N-[2-[4-[(3-Acetamidophenoxy)methyl]triazol-1-yl]ethyl]-2-(hydroxycarbamoyl)-4-methyl-pentanamide] | – | – | IC50 [1]: 35 ± 1 µM; Protection of Col I chains from cleavage by ColQ1-FL [2]: severe degradation was visible at all tested concentrations; Inhibitory effect on gelatinolytic activity of secreted collagenases [3]: no inhibitory effect on the collagenase in the zymography at all tested concentrations; also recorded: no inhibition of the collagenase in the gelatin zymography was detected; Effect on cell morphology and ECM collagen content of infected NHDF cells [4]: neither able to rescue cell morphology nor able to maintain the collagen content of the ECM
11 | CC(C)CC(C(=O)NO)C(=O)NCCn1cc(COc2ccccc2F)nn1 (stereo not drawn) [Compound 30, N-[2-[4-[(2-Fluorophenoxy)methyl]triazol-1-yl]ethyl]-2-(hydroxycarbamoyl)-4-methyl-pentanamide] | 92 | – | IC50 [1]: 16.2 ± 0.8 µM; Inhibitory effect on gelatinolytic activity of secreted collagenases [3]: no inhibitory effect on the collagenase in the zymography at all tested concentrations
12 | CCCCCN(C)CCC(O)(P(=O)(O)O)P(=O)(O)O [Ibandronate sodium, reference compound] | < 5 | – | –
13 | NCCCCCC(O)(P(=O)(O)O)P(=O)(O)O [Neridronate, reference compound] | < 5 | – | –
14 | O=P(O)(O)C(O)(Cc1cccnc1)P(=O)(O)O [Risedronate sodium, reference compound] | < 5 | – | –
